In ChEMBL document CHEMBL3352615, “Synthesis and evaluation of ether-linked demethylepipodophyllotoxin dimers” (Bioorg Med Chem Lett, 2014):
Calls of active or inactive are those of the source. No cut-off for these calls is given here.

Legend:
[1] = molecular target: DNA topoisomerase 2-alpha (Homo sapiens) (UniProt P11388); test: Inhibition of human topoisomerase-2 alpha assessed as Escherichia coli pBR322 DNA cleavage at 100 uM after 30 mins by agarose electrophoresis
L6 = test: Cytotoxicity against rat L6 cells after 71.5 hrs by Presto Blue assay; format: cell-based; conditions: L6, 71.5 h
[2] = Selectivity ratio of IC50 for rat L6 cells to IC50 for human A549 cells; format: ADME, cell-based; conditions: L6 cells and A549 cells, read-out: Ratio IC50
A549 = test: Cytotoxicity against human A549 cells after 48 hrs by Alamar Blue assay; format: functional, cell-based; conditions: A549, 48 h

DNA topoisomerase 2-alpha (Homo sapiens), sequence (P11388 whole entry): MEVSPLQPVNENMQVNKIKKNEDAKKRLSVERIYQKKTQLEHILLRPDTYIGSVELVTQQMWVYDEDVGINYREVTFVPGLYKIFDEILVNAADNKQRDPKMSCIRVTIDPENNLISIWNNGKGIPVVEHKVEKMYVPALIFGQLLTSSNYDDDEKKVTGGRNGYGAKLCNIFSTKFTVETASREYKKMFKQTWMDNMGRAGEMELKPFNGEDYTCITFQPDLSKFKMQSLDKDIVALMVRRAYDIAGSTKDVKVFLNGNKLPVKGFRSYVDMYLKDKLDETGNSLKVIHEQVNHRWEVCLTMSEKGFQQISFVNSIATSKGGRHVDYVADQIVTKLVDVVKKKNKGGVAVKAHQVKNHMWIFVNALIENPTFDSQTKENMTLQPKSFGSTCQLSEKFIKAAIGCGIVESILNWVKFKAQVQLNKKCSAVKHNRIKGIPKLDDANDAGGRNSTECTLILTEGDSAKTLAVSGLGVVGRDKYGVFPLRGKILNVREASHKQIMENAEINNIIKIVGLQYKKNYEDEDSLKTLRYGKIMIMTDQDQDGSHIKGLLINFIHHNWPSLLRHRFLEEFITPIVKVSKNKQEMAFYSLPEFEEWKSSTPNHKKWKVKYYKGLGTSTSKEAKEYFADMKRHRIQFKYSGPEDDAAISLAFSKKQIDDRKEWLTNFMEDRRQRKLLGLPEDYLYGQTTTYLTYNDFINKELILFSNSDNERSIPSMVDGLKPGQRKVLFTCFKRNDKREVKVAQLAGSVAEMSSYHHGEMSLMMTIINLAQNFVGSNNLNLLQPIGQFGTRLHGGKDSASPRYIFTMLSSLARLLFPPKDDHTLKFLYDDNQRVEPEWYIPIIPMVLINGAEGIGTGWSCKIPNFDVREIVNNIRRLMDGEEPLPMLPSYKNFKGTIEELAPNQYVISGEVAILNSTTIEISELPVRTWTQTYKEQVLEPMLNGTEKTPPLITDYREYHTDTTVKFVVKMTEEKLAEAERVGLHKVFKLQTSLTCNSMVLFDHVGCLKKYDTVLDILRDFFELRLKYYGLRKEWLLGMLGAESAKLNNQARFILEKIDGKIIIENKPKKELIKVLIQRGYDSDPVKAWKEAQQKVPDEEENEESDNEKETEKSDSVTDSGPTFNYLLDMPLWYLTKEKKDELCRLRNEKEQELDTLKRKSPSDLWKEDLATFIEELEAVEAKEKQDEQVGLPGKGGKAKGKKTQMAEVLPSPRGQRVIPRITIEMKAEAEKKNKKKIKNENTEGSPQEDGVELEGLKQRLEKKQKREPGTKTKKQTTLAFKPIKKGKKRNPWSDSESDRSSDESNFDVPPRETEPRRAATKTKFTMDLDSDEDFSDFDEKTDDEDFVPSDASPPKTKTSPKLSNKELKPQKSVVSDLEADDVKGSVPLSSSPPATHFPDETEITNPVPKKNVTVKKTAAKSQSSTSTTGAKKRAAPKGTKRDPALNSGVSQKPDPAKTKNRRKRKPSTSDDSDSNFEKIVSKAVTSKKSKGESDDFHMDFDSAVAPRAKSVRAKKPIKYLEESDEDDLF

| inhibition [1] | Structure (SMILES) | IC50 (L6) | selectivity ratio [2] | IC50 (A549) |
| --- | --- | --- | --- | --- |
| Active | CCCCO[C@@H]1c2cc3c(cc2[C@@H](c2cc(OC)c(O)c(OC)c2)[C@H]2C(=O)OC[C@@H]21)OCO3 | 4620 nM | 1.6 | 2870 nM |
| Active | CCCCCCO[C@@H]1c2cc3c(cc2[C@@H](c2cc(OC)c(O)c(OC)c2)[C@H]2C(=O)OC[C@@H]21)OCO3 | 4550 nM | 0.76 | 5970 nM |
| Active | COc1cc([C@@H]2c3cc4c(cc3[C@@H](O[C@@H]3O[C@@H]5CO[C@@H](C)O[C@H]5[C@H](O)[C@H]3O)[C@H]3COC(=O)[C@H]23)OCO4)cc(OC)c1O [ETOPOSIDE] | 19000 nM | 6.7 | 2870 nM |

Second part, the compound before the results:

| Structure (SMILES) | inhibition [1] | IC50 (L6) | selectivity ratio [2] | IC50 (A549) |
| --- | --- | --- | --- | --- |
| COc1cc([C@@H]2c3cc4c(cc3[C@@H](OCc3ccc(CO[C@@H]5c6cc7c(cc6[C@@H](c6cc(OC)c(O)c(OC)c6)[C@H]6C(=O)OC[C@@H]65)OCO7)cc3)[C@H]3COC(=O)[C@H]23)OCO4)cc(OC)c1O | Active | 600 nM | 1.7 | 360 nM |
| COc1cc([C@@H]2c3cc4c(cc3[C@@H](OCc3ccccc3)[C@H]3COC(=O)[C@H]23)OCO4)cc(OC)c1O | Active | 4550 nM | 1.2 | 3860 nM |
| COc1cc([C@@H]2c3cc4c(cc3[C@@H](OCCCCO[C@@H]3c5cc6c(cc5[C@@H](c5cc(OC)c(O)c(OC)c5)[C@H]5C(=O)OC[C@@H]53)OCO6)[C@H]3COC(=O)[C@H]23)OCO4)cc(OC)c1O | Active | 300 nM | 4.3 | 70 nM |
| COc1cc([C@@H]2c3cc4c(cc3[C@@H](OCCCCCCO[C@@H]3c5cc6c(cc5[C@@H](c5cc(OC)c(O)c(OC)c5)[C@H]5C(=O)OC[C@@H]53)OCO6)[C@H]3COC(=O)[C@H]23)OCO4)cc(OC)c1O | Active | 300 nM | 2.5 | 120 nM |
